Data: article PMC6269060, “4-(1H-Pyrazol-1-yl) Benzenesulfonamide Derivatives: Identifying New Active Antileishmanial Structures for Use against a Neglected Disease” (Molecules, 2012)

Legend:
[1] = tested on: Leishmania amazonensis promastigotes; assay: In vitro antileishmanial drug assay, L. amazonensis promastigotes; format: cell-based, Leishmania amazonensis MHOM/BR/77/LTB0016 strain; settings: for S.I (selectivity index: CC50 drug/IC50 drug), Leishmania amazonensis: CC50 on murine peritoneal cells / IC50 on L. amazonensis promastigotes; for IC50: Leishmania amazonensis, promastigotes, 24 h, 26 °C, mean ± S.D. of three determinations
Method: (§1) Parasites in metacyclic phase (4 × 10^6 parasites/mL) were incubated with the derivatives (40–160 mg/mL) solubilized in dimethyl sulphoxide (DMSO, Sigma Chemical Co., St. Louis, MO, USA) at 26 °C for 24 h. The results were expressed as IC50/24 h, the concentration of a compound that caused a 50% reduction in survival/viability compared with non-treated culture. Pentamidine was used as reference drug and all tests were carried out in triplicate. Promastigotes of L. amazonensis (MHOM/BR/77/LTB0016 strain) and L. infantum (syn. chagasi) (MCAN/BR/97/P142 strain) were grown in Schneider’s insect medium (Sigma) at 26 °C in pH 7.2 supplemented with 10–20% (v/v) heat-inactivated fetal calf serum.

[2] = tested on: Leishmania infantum (L. chagasi syn.) promastigotes; assay: In vitro antileishmanial drug assay, L. infantum promastigotes; format: cell-based, Leishmania infantum (syn. chagasi) MCAN/BR/97/P142 strain; settings: for S.I (selectivity index: CC50 drug/IC50 drug), Leishmania infantum: CC50 on murine peritoneal cells / IC50 on L. infantum promastigotes; for IC50: Leishmania infantum, promastigotes, 24 h, 26 °C, mean ± S.D. of three determinations
Method: as §1

[3] = In vitro cytotoxicity (MTT); format: cell-based, BALB/c mice; settings: BALB/c, mouse, murine peritoneal adherent cells
Method: The BALB/c mice from Laboratory Animals Nucleus (UFF) were sacrificed to obtain peritoneal cells and for both infection and isolation of Leishmania. The protocol assays was approved by the Institutional Committee of the Center for Biological Evaluation and Care of Research Animals (CEUA-UFF).
BALB/c mice peritoneal cavity cells (4 × 10^5cells/well) were incubated with the derivatives (10, 20, 40 and 80 µg/mL) in 96 wells plate for 24 h in […] RPMI 1640 medium, supplemented with 1 mmol·L^−1L-glutamine, […], penicillin G (10^5 IU·L^−1) and streptomycin sulfate (0.10 g·L^−1) at 37 °C in a humidified 5% CO2 atmosphere. After that, 3-[4,5-dimethylthiazol-2-yl]-2,5-diphenyltetrazolium bromide, MTT (Sigma) was added and the reaction was interrupted with DMSO after 2 h. The results were determined in 540 nm by using a MicroQuant spectrophotometer (Biotek-Instrument Inc., Winooski, VT, USA). All assays were repeated at least four times in quadruplicate. The cytotoxicity profile was expressed as CC50/24 h, the concentration of a compound that caused cytotoxicity compared to non-treated cultures. Index of selectivity (IS) was defined as the ratio of the CC50 value on the macrophage to the IC50 value on the L. amazonensis or L. infantum strains (promastigotes).

SMILES | IC50 [1] | IC50 [2] | S.I (selectivity index: CC50 drug/IC50 drug), Leishmania amazonensis [1] | S.I (selectivity index: CC50 drug/IC50 drug), Leishmania infantum [2] | CC50 at 24 h [3]
Cc1nn(-c2ccc(S(N)(=O)=O)cc2)c(Cl)c1Br [Compound 3a, 4-(4-Bromo-5-chloro-3-methyl-1H-pyrazol-1-yl)benzenesulfonamide] | 228 ± 330 µM | 228 ± 190 µM | 0.78 | 0.78 | 
Cc1ccc(NS(=O)(=O)c2ccc(-n3nc(C)c(Br)c3Cl)cc2)cc1 [Compound 3c, 4-(4-Bromo-5-chloro-3-methyl-1H-pyrazol-1-yl)-N-(4methylphenyl)benzenesulfonamide] | 318 ± 590 µM | 123 ± 50 µM | 0.51 | 1.33 | 
Cc1cc(Cl)n(-c2ccc(NS(=O)(=O)c3ccccc3)cc2)n1 [Compound 3f, N-[4-(5-Chloro-3-methyl-1H-pyrazol-1-yl)phenyl]benzenesulfonamide] | 153 ± 220 µM | 138 ± 110 µM | 0.68 | 0.76 | 
Cc1ccc(S(=O)(=O)Nc2ccc(-n3nc(C)cc3Cl)cc2)cc1 [Compound 3g, N-[4-(5-Chloro-3-methyl-1H-pyrazol-1-yl)phenyl]-4-methylbenzenesulfonamide] | 136 ± 54 µM | 149 ± 120 µM | 1.33 | 1.21 | 

The next lines start with results.

IC50 [1] | IC50 [2] | SMILES | S.I (selectivity index: CC50 drug/IC50 drug), Leishmania amazonensis [1] | S.I (selectivity index: CC50 drug/IC50 drug), Leishmania infantum [2] | CC50 at 24 h [3]
70 ± 20 µM | 59 ± 10 µM | Cc1nn(-c2ccc(S(=O)(=O)Nc3ccccc3)cc2)c(Cl)c1Br [Compound 3b, 4-(4-Bromo-5-chloro-3-methyl-1H-pyrazol-1-yl)-N-phenylbenzenesulfonamide] | 2.05 | 2.44 | 144 µM
75 ± 10 µM | 99 ± 80 µM | Cc1nn(-c2ccc(S(=O)(=O)Nc3ccc(Br)cc3)cc2)c(Cl)c1Br [Compound 3d, 4-(4-Bromo-5-chloro-3-methyl-1H-pyrazol-1-yl)-N-(4-bromophenyl)benzenesulfonamide] | 0.65 | 0.49 | 
72 ± 50 µM | 65 ± 40 µM | Cc1nn(-c2ccc(S(=O)(=O)Nc3ccc(Cl)cc3)cc2)c(Cl)c1Br [Compound 3e, 4-(4-Bromo-5-chloro-3-methyl-1H-pyrazol-1-yl)-N-(4-chlorophenyl)benzenesulfonamide] | 1.61 | 1.78 | 116 µM
21 µM | 62 µM | N=C(N)c1ccc(OCCCCCOc2ccc(C(=N)N)cc2)cc1 [Pentamidine, reference compound] |  |  | 54 µM
